# Source: patent US5618675A, “Methods and compositions for detecting lipopolysaccharides using CAP18 fragments” (Panorama Research, Inc., dated 1997)
# Test system: human monocytes
# Assay: TNF release from LPS and IFNγ stimulated monocytes
# Assay type: cell-based
substance,measurement,setting,value
"RNIP: reactive nitrogen inhibitory protein, amino acids 135-171 of SEQ ID NO:4 (rabbit CAP18 C-terminus); purified from granulocytes or synthetic (#197) (GLRKRLRKFRNKIKEKLKKIGQKIQGLLPKLAPRTDY)",TNF,"Human IFNγ (100 U), (1:1), stimulus alone 2.0",0.27 ng/mL
same,TNF,"Human IFNγ (100 U), (1:10), stimulus alone 2.0",0.35 ng/mL
same,TNF,"Human IFNγ (100 U), (1:100), stimulus alone 2.0",0.35 ng/mL
same,TNF,"LPS (10 ng/ml), (1:1), stimulus alone 1.0",0.12 ng/mL
same,TNF,"LPS (10 ng/ml), (1:10), stimulus alone 1.0",0.34 ng/mL
same,TNF,"LPS (10 ng/ml), (1:100), stimulus alone 1.0",0.23 ng/mL
